This note sets out measurements from ChEMBL document CHEMBL6096662, “Discovery and structure-activity relationship study of nicotinamide derivatives as DNA demethylase ALKBH2 inhibitors” (Eur J Med Chem, 2025).

Assay [1] has as its target T1, DNA oxidative demethylase ALKBH2 (Homo sapiens, UniProt Q6NS38).
T1 sequence (Q6NS38 whole entry): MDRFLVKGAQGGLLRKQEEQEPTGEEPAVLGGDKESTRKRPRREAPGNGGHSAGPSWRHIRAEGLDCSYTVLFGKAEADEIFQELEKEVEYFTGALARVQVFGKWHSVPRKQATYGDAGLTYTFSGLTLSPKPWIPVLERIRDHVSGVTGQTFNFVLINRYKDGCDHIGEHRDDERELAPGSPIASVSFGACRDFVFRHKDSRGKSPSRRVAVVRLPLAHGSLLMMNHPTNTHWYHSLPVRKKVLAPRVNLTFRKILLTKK
The experiment in a line: Inhibition of ALKBH2 (56 to 261 residues)(unknown origin) extracted from Escherichia coli BL21 (DE3) using 5'-GAAGACCT(1meA)GGCGTCC-3'/5'- CTGGGACGCCTAGGTCTTCACTG-3' as substrate incubated for 30 mins by FP assay.

A further assay concerns U-87 MG. Kind of assay: Anti-viability activity against human U87 cells by MTT assay. The format is functional, cell-based, U-87MG ATCC. For orientation: Tetrazolium assays rely on reduction of a dye to a coloured formazan, in cell work by metabolically active cells.
In assay [2] the target is T1, DNA oxidative demethylase ALKBH2. Kind of assay: Binding affinity to ALKBH2 (56 to 261 residues)(unknown origin) assessed as dissociation constant by ITC assay. In general terms: ITC needs no label: the signal is the heat of the interaction.
Assay [3] in a line: Inhibition of demethylase activity of ALKBH1 (19 to 369 residues)(unknown origin) extracted from Escherichia coli BL21 (DE3) using 6meA unpaired dsDNA as substrate incubated for 30 mins by methylation-sensitive restriction enzyme digestion assay. Further details: species or system Homo sapiens.
Assay [4] has as its target T2, Alpha-ketoglutarate-dependent dioxygenase alkB homolog 3 (Homo sapiens, UniProt Q96Q83).
T2 sequence (Q96Q83 whole entry): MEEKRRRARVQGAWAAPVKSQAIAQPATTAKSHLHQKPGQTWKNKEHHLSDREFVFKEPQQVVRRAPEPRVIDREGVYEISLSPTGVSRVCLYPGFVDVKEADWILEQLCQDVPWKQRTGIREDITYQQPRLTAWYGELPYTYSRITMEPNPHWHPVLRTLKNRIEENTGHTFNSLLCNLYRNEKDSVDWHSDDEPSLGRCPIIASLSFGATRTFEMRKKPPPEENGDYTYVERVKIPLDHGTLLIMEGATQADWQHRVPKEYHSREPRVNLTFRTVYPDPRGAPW
Kind of assay: Inhibition of demethylase activity of ALKBH3 (70 to 286 residues)(unknown origin) extracted from Escherichia coli BL21 (DE3) using 1meA dsDNA as substrate incubated for 30 mins by methylation-sensitive restriction enzyme digestion assay.

Assay [5] concerns the target T1, DNA oxidative demethylase ALKBH2. The experiment in a line: Inhibition of ALKBH2 (56 to 261 residues)(unknown origin) extracted from Escherichia coli BL21 (DE3) using 5meC DNA as substrate by FP assay.
A further assay deals with RNA demethylase ALKBH5 (Homo sapiens, UniProt Q6P6C2). The experiment in a line: Inhibition of demethylase activity of ALKBH5 (66 to 292 residues)(unknown origin) extracted from Escherichia coli BL21 (DE3) using 6meA dsDNA as substrate incubated for 30 mins by methylation-sensitive restriction enzyme digestion assay.
Assay [6] has as its target T1, DNA oxidative demethylase ALKBH2. The experiment in a line: Inhibition of demethylase activity of ALKBH2 (56 to 261 residues)(unknown origin) extracted from Escherichia coli BL21 (DE3) using 1meA dsDNA as substrate incubated for 30 mins in presence of alpha-KG by methylation-sensitive restriction enzyme digestion assay.
For assay [7], the target named is Alpha-ketoglutarate-dependent dioxygenase FTO (Homo sapiens, UniProt Q9C0B1). The experiment in a line: Inhibition of demethylase activity of FTO (35 to 505 residues)(unknown origin) extracted from Escherichia coli BL21 (DE3) using 6meA dsDNA as substrate incubated for 30 mins by methylation-sensitive restriction enzyme digestion assay.

Each structure is given as a SMILES string.

The term IC50 denotes the concentration that gives 50% inhibition. As a reminder, the Kd is a measure of binding affinity in units of concentration.

Chain of RNA demethylase ALKBH5 (Q6P6C2 whole entry, the tested form may be a part): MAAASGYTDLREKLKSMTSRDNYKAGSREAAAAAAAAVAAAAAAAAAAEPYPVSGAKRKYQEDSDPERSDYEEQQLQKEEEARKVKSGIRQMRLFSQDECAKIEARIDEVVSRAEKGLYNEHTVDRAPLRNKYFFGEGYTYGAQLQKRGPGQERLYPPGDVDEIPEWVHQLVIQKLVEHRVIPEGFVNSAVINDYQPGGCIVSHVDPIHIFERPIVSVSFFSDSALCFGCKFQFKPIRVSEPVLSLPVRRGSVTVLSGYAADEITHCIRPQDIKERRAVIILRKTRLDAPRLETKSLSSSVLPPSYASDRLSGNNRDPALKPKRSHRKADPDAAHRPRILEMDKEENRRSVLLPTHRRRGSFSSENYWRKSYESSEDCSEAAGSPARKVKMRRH
Chain of Alpha-ketoglutarate-dependent dioxygenase FTO (Q9C0B1 whole entry, the tested form may be a part): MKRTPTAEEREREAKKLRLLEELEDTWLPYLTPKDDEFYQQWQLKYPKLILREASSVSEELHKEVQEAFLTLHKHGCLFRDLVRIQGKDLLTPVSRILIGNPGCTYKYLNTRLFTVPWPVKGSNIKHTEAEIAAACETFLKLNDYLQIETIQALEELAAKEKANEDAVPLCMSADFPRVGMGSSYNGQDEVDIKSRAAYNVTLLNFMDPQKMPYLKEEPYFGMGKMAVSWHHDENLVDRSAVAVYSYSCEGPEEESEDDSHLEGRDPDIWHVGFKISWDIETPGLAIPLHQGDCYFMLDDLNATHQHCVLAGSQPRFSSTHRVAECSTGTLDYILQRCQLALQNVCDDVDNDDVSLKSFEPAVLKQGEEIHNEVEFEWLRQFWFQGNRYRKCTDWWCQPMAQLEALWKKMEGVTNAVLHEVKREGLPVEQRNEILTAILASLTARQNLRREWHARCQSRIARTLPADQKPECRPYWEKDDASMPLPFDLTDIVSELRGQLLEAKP

Consider `O=C(O)c1cnn(-c2ccc(C(=O)N3CCCC(c4ccccc4)C3)cn2)c1` (stereo not drawn), for which, in assay [1], the IC50 turned out to be 0.073 µM.

Regarding `CCOC(=O)c1cnn(-c2ccc(C(=O)NC(c3ccccc3)C(C)(C)C)cn2)c1` (stereo not drawn), the IC50 in the assay on U-87 MG stood at 4.56 µM.

Molecule `O=C(O)c1cnn(-c2ccccc2)c1` showed an IC50 in [1] of 86.7 µM.

For `CC(C)(C)C(NC(=O)c1ccc(-n2cc(C(=O)O)cn2)nc1)c1ccccc1` (stereo not drawn), the Kd in assay [2] was found to be 0.226 µM. The IC50 in [3] is over 200 µM; in [4] it was over 200 µM; in assay [5], 0.047 µM; on RNA demethylase ALKBH5, over 200 µM; in [6], 1.48 µM; in [7], over 200 µM. For the same molecule, the IC50 was determined as 103 µM in the assay on U-87 MG and 0.031 µM in assay [1].

As to `COC1CCN(C(=O)c2ccc(-n3cc(C(=O)O)cn3)nc2)C1` (stereo not drawn), the IC50 in [1] was determined as 0.378 µM.
